Results on five compounds are retold here after PubChem BioAssay AID1259407 (Chemical Carcinogenesis Research Information System (CCRIS), 2018).

Activity calls are given as the source filed them. No rule for the calls is given here.

This series concerns CCRIS mutagenicity, Ames/micronucleus/aberration tests. The experiment in a line: CCRIS mutagenicity studies.
Setting [1] is: Test System: AMES SALMONELLA TYPHIMURIUM, Strain/Indicator: TA100, Metabolic Activation: NONE, Method: STANDARD PLATE.
Setting [2] is: Test System: AMES SALMONELLA TYPHIMURIUM, Strain/Indicator: TA98, Metabolic Activation: NONE, Method: PREINCUBATION
The mark [3] stands for this setting: Test System: AMES SALMONELLA TYPHIMURIUM, Strain/Indicator: TA100, Metabolic Activation: NONE, Method: PREINCUBATION
The mark [4] stands for this setting: Test System: AMES SALMONELLA TYPHIMURIUM, Strain/Indicator: TA1535, Metabolic Activation: NONE, Method: PREINCUBATION
The mark [5] stands for this setting: Test System: AMES SALMONELLA TYPHIMURIUM, Strain/Indicator: TA1537, Metabolic Activation: NONE, Method: PREINCUBATION

With `Clc1ccc(N=Nc2ccc(Cl)c(Cl)c2)cc1Cl`, the mutagenic call runs as follows: (Test System: AMES SALMONELLA TYPHIMURIUM, Strain/Indicator: TA97, Metabolic Activation: NONE, Method: STANDARD PLATE) “inactive; negative”; (Test System: AMES SALMONELLA TYPHIMURIUM, Strain/Indicator: TA97, Metabolic Activation: RAT, LIVER, S-9, AROCLOR 1254, Method: STANDARD PLATE) “inactive; negative”; (Test System: AMES SALMONELLA TYPHIMURIUM, Strain/Indicator: TA98, Metabolic Activation: NONE, Method: STANDARD PLATE) “inactive; negative”; (Test System: AMES SALMONELLA TYPHIMURIUM, Strain/Indicator: TA98, Metabolic Activation: RAT, LIVER, S-9, AROCLOR 1254, Method: STANDARD PLATE) “inactive; negative”; under setting [1], “inactive; negative”; (Test System: AMES SALMONELLA TYPHIMURIUM, Strain/Indicator: TA100, Metabolic Activation: RAT, LIVER, S-9, AROCLOR 1254, Method: STANDARD PLATE) “inactive; negative”. Also, the mutagenic call is, setting by setting: (Test System: AMES SALMONELLA TYPHIMURIUM, Strain/Indicator: TA104, Metabolic Activation: NONE, Method: STANDARD PLATE) “inactive; negative”; (Test System: AMES SALMONELLA TYPHIMURIUM, Strain/Indicator: TA104, Metabolic Activation: RAT, LIVER, S-9, AROCLOR 1254, Method: STANDARD PLATE) “inactive; negative”; (Test System: CHINESE HAMSTER OVARY, Strain/Indicator: CHO-K1-BH4 (HGPRT), Metabolic Activation: NONE) “inactive; negative”; (Test System: CHINESE HAMSTER OVARY, Strain/Indicator: CHO-K1-BH4 (HGPRT), Metabolic Activation: RAT, LIVER, S-9, AROCLOR 1254) “inactive; negative”; (Test System: UDS RODENT HEPATOCYTES, Strain/Indicator: THY INCORP (NON-S-PHASE), Method: LIQUID SCINTILLATION COUNTING) “active; positive”.

With `C(CCC1CO1)CC1CO1` (configuration not stated), the mutagenic call by setting is: (Test System: AMES SALMONELLA TYPHIMURIUM, Strain/Indicator: TA97A, Metabolic Activation: NONE, Method: STANDARD PLATE) “active; positive”; under setting [1], “active; positive”; (Test System: AMES SALMONELLA TYPHIMURIUM, Strain/Indicator: TA102, Metabolic Activation: NONE, Method: STANDARD PLATE) “active; positive”; (Test System: AMES SALMONELLA TYPHIMURIUM, Strain/Indicator: TA102, Metabolic Activation: RAT LIVER S-9, AROCLOR 1254, Method: STANDARD PLATE) “active; positive”; (Test System: AMES SALMONELLA TYPHIMURIUM, Strain/Indicator: TA1535, Metabolic Activation: NONE, Method: STANDARD PLATE) “active; positive”; (Test System: AMES SALMONELLA TYPHIMURIUM, Strain/Indicator: TA1537, Metabolic Activation: NONE, Method: STANDARD PLATE) “inactive; negative”.

As to `COc1cc(C[C@H]2COC(=O)[C@@H]2Cc2ccc(O)c(OC)c2)ccc1O`, the mutagenic call reads like this: (Test System: CHINESE HAMSTER V79 CELLS, Strain/Indicator: V79 CELLS (HPRT)/6-THIOGUANINE, Metabolic Activation: NONE, Method: SUSPENSION/PLATE) “inactive; negative”; (Test System: CHINESE HAMSTER V-79, Strain/Indicator: V-79(HPRT)/THIOGUANINE, Metabolic Activation: NONE) “inactive; negative”.

As for `CCN1CCNC(=O)C1=O`, the mutagenic call runs as follows: under setting [2], “inactive; negative”; (Test System: AMES SALMONELLA TYPHIMURIUM, Strain/Indicator: TA98, Metabolic Activation: RAT LIVER S-9, PHENOBARBITAL AND BETA-NAPHTHOFLAVONE, Method: PREINCUBATION) “inactive; negative”; under setting [3], “inactive; negative”; (Test System: AMES SALMONELLA TYPHIMURIUM, Strain/Indicator: TA100, Metabolic Activation: RAT LIVER S-9, PHENOBARBITAL AND BETA-NAPHTHOFLAVONE, Method: PREINCUBATION) “inactive; negative”; under setting [4], “inactive; negative”; (Test System: AMES SALMONELLA TYPHIMURIUM, Strain/Indicator: TA1535, Metabolic Activation: RAT LIVER S-9, PHENOBARBITAL AND BETA-NAPHTHOFLAVONE, Method: PREINCUBATION) “inactive; negative”. Also, the mutagenic call is “inactive; negative” under setting [5]; “inactive; negative” (Test System: AMES SALMONELLA TYPHIMURIUM, Strain/Indicator: TA1537, Metabolic Activation: RAT LIVER S-9, PHENOBARBITAL AND BETA-NAPHTHOFLAVONE, Method: PREINCUBATION); “inactive; negative” (Test System: AMES SALMONELLA TYPHIMURIUM, Strain/Indicator: TA1538, Metabolic Activation: NONE, Method: PREINCUBATION); “inactive; negative” (Test System: AMES SALMONELLA TYPHIMURIUM, Strain/Indicator: TA1538, Metabolic Activation: RAT LIVER S-9, PHENOBARBITAL AND BETA-NAPHTHOFLAVONE, Method: PREINCUBATION); “inactive; negative” (Test System: E.COLI, Strain/Indicator: WP2UVRA, Metabolic Activation: NONE, Method: PREINCUBATION); “inactive; negative” (Test System: E.COLI, Strain/Indicator: WP2UVRA, Metabolic Activation: RAT LIVER S-9, PHENOBARBITAL AND BETA-NAPHTHOFLAVONE, Method: PREINCUBATION).

`CC(O)c1ccccc1` (configuration not stated): the mutagenic call runs as follows: (Test System: AMES SALMONELLA TYPHIMURIUM, Strain/Indicator: TA98, Metabolic Activation: HAMSTER, LIVER, S-9, AROCLOR 1254 (10%), Method: PREINCUBATION) “inactive; negative”; (Test System: AMES SALMONELLA TYPHIMURIUM, Strain/Indicator: TA98, Metabolic Activation: HAMSTER, LIVER, S-9, AROCLOR 1254, Method: PREINCUBATION) “inactive; negative”; under setting [2], “inactive; negative”; (Test System: AMES SALMONELLA TYPHIMURIUM, Strain/Indicator: TA98, Metabolic Activation: RAT, LIVER, S-9, AROCLOR 1254 (10%), Method: PREINCUBATION) “inactive; negative”; (Test System: AMES SALMONELLA TYPHIMURIUM, Strain/Indicator: TA98, Metabolic Activation: RAT, LIVER, S-9, AROCLOR 1254, Method: PREINCUBATION) “inactive; negative”; (Test System: AMES SALMONELLA TYPHIMURIUM, Strain/Indicator: TA100, Metabolic Activation: HAMSTER, LIVER, S-9, AROCLOR 1254 (10%), Method: PREINCUBATION) “inactive; negative”. Also, the mutagenic call is “inactive; negative” (Test System: AMES SALMONELLA TYPHIMURIUM, Strain/Indicator: TA100, Metabolic Activation: HAMSTER, LIVER, S-9, AROCLOR 1254, Method: PREINCUBATION); “inactive; negative” under setting [3]; “inactive; negative” (Test System: AMES SALMONELLA TYPHIMURIUM, Strain/Indicator: TA100, Metabolic Activation: RAT, LIVER, S-9, AROCLOR 1254 (10%), Method: PREINCUBATION); “inactive; negative” (Test System: AMES SALMONELLA TYPHIMURIUM, Strain/Indicator: TA100, Metabolic Activation: RAT, LIVER, S-9, AROCLOR 1254, Method: PREINCUBATION); “inactive; negative” (Test System: AMES SALMONELLA TYPHIMURIUM, Strain/Indicator: TA1535, Metabolic Activation: HAMSTER, LIVER, S-9, AROCLOR 1254 (10%), Method: PREINCUBATION); “inactive; negative” (Test System: AMES SALMONELLA TYPHIMURIUM, Strain/Indicator: TA1535, Metabolic Activation: HAMSTER, LIVER, S-9, AROCLOR 1254, Method: PREINCUBATION). The mutagenic call runs as follows: under setting [4], “inactive; negative”; (Test System: AMES SALMONELLA TYPHIMURIUM, Strain/Indicator: TA1535, Metabolic Activation: RAT, LIVER, S-9, AROCLOR 1254 (10%), Method: PREINCUBATION) “inactive; negative”; (Test System: AMES SALMONELLA TYPHIMURIUM, Strain/Indicator: TA1535, Metabolic Activation: RAT, LIVER, S-9, AROCLOR 1254, Method: PREINCUBATION) “inactive; negative”; (Test System: AMES SALMONELLA TYPHIMURIUM, Strain/Indicator: TA1537, Metabolic Activation: HAMSTER, LIVER, S-9, AROCLOR 1254 (10%), Method: PREINCUBATION) “inactive; negative”; (Test System: AMES SALMONELLA TYPHIMURIUM, Strain/Indicator: TA1537, Metabolic Activation: HAMSTER, LIVER, S-9, AROCLOR 1254, Method: PREINCUBATION) “inactive; negative”; under setting [5], “inactive; negative”. Besides, the mutagenic call (Test System: AMES SALMONELLA TYPHIMURIUM, Strain/Indicator: TA1537, Metabolic Activation: RAT, LIVER, S-9, AROCLOR 1254 (10%), Method: PREINCUBATION) is “inactive; negative”; the mutagenic call (Test System: AMES SALMONELLA TYPHIMURIUM, Strain/Indicator: TA1537, Metabolic Activation: RAT, LIVER, S-9, AROCLOR 1254, Method: PREINCUBATION) was “inactive; negative”; the mutagenic call (Test System: MOUSE LYMPHOMA, Strain/Indicator: L5178Y (TK+/TK-), Metabolic Activation: NONE, Method: SUSPENSION/PLATE) is “active; positive”.
